Consider nine molecules from US8268849B2, “Multifunctional Antioxidants and methods of use thereof” (priority 2007, dated 2012).

Entries after “also recorded” stand apart in the source; their conditions may differ.

The conditions of data set [1]: Gino et al. (2001); cited from earlier work.
For data set [2] the following is noted: Gino et al. (2001); cited from earlier work. The source holds these as a separate data set.
Data set [3] has as its system diabetic cataract formation. In words: Cataract formation in diabetic rats. Type of data set: in vivo. To be noted: streptozotocin diabetic rats. The method, then:
Diabetes was induced in 100 g Sprague Dawley rats with streptozotocin injection (75 mg/kg) and all rats with blood sugar levels >300 mg/dL were divided into 4 groups of 8 rats each. One group received only standard rat chow (untreated diabetic) while each of the other groups received chow containing either 0.0125% ARI Al1576, 0.025% JHX-4 or 0.025% JHX-8. Lens changes were monitored by at 3-5 day intervals by slit lamp following tropicamide mydriasis. As summarized in FIGS. 8A-8C, vacuole formation began by 14 days in the untreated diabetic group with cortical opacities observed by 29 days and mature cataracts by 44 days. […] In the two antioxidant treated groups, vacuole formation was delayed by 19 and 11 days by JHX-4 and JHX-8, respectively, and cortical cataracts by 9 and 3 days, respectively. At the end of the study (47 days) all rats were equally diabetic with HbA1C levels >11.9%. All eyes were enucleated and lens sorbitol levels were measured as previously described (Kador et al. (2007) J. Ocul. Pharmacol. Ther., 23:116-23). […] Tissue levels of JHX-4 and -8 in the lens, neural retina and brain were determined after 47 days of feeding as described above (FIG. 10). […] Overall drug levels in both the lens and retina were ca. 3-fold higher in the diabetic rats with brain levels also now present. This increase may be due to either an accumulation of drug, or increased permeability of tissues and the BBB to drug in streptozotocin diabetic rats (Mooradian et al. (2005) Diabetes, 54:2977-82).

Data set [4] is described as follows: Chelation study by ESI-MS, Zn^2+ solution. Type of data set: binding. The following applies: 10:1 metal:compound, 45 minutes of mixing. The method, then: (§1) The relative amount of ions bound by JHX-1-JHX-8 was determined by electrospray ionization mass spectrometry (ESI-MS) according to the method of Baron and Hering (Baron and Hering (1998) Spectrometry J. Environ. Qual., 27:844-850). In this method solutions containing Fe^2+, Fe^3+, Cu^1+, Cu^2+, Zn^2+, Ca^2+, Mg^2+ were mixed with compound in ratios of 10:1, 1:1, and 1:10. After 45 minutes of mixing, each solution was directly infused into the MS with constant ionization energy and the relative decreases of the parent peaks in these solutions were determined. […] FIG. 3 illustrates ion binding with increased Fe^+2 concentrations results in decreased compound parent peak heights by ESI-MS when compounds contain appropriate functional groups for metal ion chelation.

The nature of data set [5]: Chelation study by ESI-MS, Mg^2+ solution. Type of data set: binding. To be noted: 10:1 metal:compound, 45 minutes of mixing. The method, then: as §1
Data set [6] is described as follows: Chelation study by ESI-MS, Ca^2+ solution. The following applies: 10:1 metal:compound, 45 minutes of mixing. The format is binding. The method, then:
as §1

A short description of data set [7]: Chelation study by ESI-MS, Cu^1+ solution. The format is binding. To be noted: 10:1 metal:compound, 45 minutes of mixing. The method, then:
as §1

The nature of data set [8]: Chelation study by ESI-MS, Cu^2+ solution. Type of data set: binding. The following applies: 10:1 metal:compound, 45 minutes of mixing. On the procedure: as §1
Data set [9] is described as follows: Chelation study by ESI-MS, Fe^2+ solution. The following applies: 10:1 metal:compound, 45 minutes of mixing. Type of data set: binding. On the procedure: as §1
Data set [10] can be described thus: Chelation study by ESI-MS, Fe^3+ solution. The format is binding. The following applies: 10:1 metal:compound, 45 minutes of mixing. On the procedure:
as §1

Data set [11] deals with SRA-1 human lens epithelial cells. In words: ROS staining (H2DCF-DA) in lens epithelial cells. The following applies: 24 hour incubation, H2DCF-DA stain; for ROS staining, ROS initiated by homocysteine: 10 mM homocysteine (ER stress); for ROS staining, ROS generated by Fenton reaction: 0.1 mM Fe^2+ and 0.1 mM hydrogen peroxide. Type of data set: cell-based. On the procedure: The SRA-1 human lens epithelium cell line (Ibaraki et al. (1998) Exp. Eye Res., 67:577-85) was used to evaluate the antioxidant activity of JHX-1-8. These cells were cultured in DMEM media containing 10% fetal bovine serum (FBS), glutamine, NaHCO3, penicillin, and streptomycin at 37° C. in humidified atmosphere of 5% CO2 and 95% air until subconfluent (2-4 days). The cells were passaged when 80-90% confluent by treatment with trypsin-EDTA. The cells were plated at a density of 1×10^4 cells onto 96-well plates or 1×10^6 cells onto 100-mm dishes. ROS levels/effects in cells treated with JHX-1-8 were compared to similar cells treated with the water soluble Vitamin E derivative, Trolox (antioxidant control) or no drug (control).
The compounds were initially screened for antioxidant activity in 24 hour cultured SRA-1 human lens epithelial cells. Reactive oxygen species (ROS) in these cells were generated through both the Fenton reaction in which 0.1 mM Fe^2+ and 0.1 mM hydrogen peroxide were added to the culture media, or by culturing the lens with 10 mM homocysteine which induces endoplasmic reticular (ER) stress that results in the unfolded protein response (UPR) that subsequently generates the ROS. ROS were visualized with 2′,7′-dichlorodihydrofluorescein diacetate (DCF) staining. More specifically, after 24 hours of incubation, all cells were washed 2× with PBS and then incubated at room temperature for 1 hour with 10 μM H2DCF-DA (Invitrogen) stain. Fluorescent ROS staining was analyzed by quantifying pixel intensities of images obtained by fluorescent microscopy. As illustrated below in FIGS. 4A and 4B, compounds with chelating groups only produced a dose-dependent reduction in Fenton Reaction generated ROS. […] Indeed, homocysteine activates ER stress which subsequently initiates ROS through an Unfolded Protein Response (UPR).

The subject of data set [12] is SRA-1 human lens epithelium cell line. Kind of data set: MTS cell viability assay. Type of data set: cell-based. To be noted: 1 mM compound; for protection against H2O2 induced loss of cell viability: 1.0 mM H2O2, 2 hours. On the procedure: The SRA-1 human lens epithelium cell line (Ibaraki et al. (1998) Exp. Eye Res., 67:577-85) was used to evaluate the antioxidant activity of JHX-1-8. […] The cells were passaged when 80-90% confluent by treatment with trypsin-EDTA. The cells were plated at a density of 1×10^4 cells onto 96-well plates or 1×10^6 cells onto 100-mm dishes. ROS levels/effects in cells treated with JHX-1-8 were compared to similar cells treated with the water soluble Vitamin E derivative, Trolox (antioxidant control) or no drug (control). […] Cells were cultured in 96-well plates and exposed for 2 hours to media containing 1.0 mM H2O2 (FIG. 5A) or Fenton reagents (1.0 mM H2O2 and 1.0 mM Fe^2+, FIG. 5B) with/without 1 mM JHX-1-8 or Trolox. Viability was measured as the absorbance of MTS stain at 490 nm 1 hour after the addition of 20 μL of […] AQueous One Solution Cell Proliferation Assay to each well. The results were normalized to blank control (100%) since absorbance is directly proportional to the living cell population.
In general terms: Formazan colour is commonly taken as a measure of viable cells.

Data set [13] can be described thus: Chelation studies by ESI-MS, overall statement on ion binding. The following applies: binding order Cu^1+=Cu^2+>Fe^2+=Fe^3+>Zn^2+; no binding with Ca^2+ or Mg^2+. The method, then:
as §1

Turning to `Cc1nc(N(C)C)nc(C)c1O` [2-N,N-Dimethyl-4,6-dimethyl-5-hydroxypyrimidine], the “reactivity toward alkyl radicals compared to α-tocopherol” value in data set [1] was 5 fold. The “reactivity to peroxy radicals compared to α-tocopherol” value in data set [2] is recorded as “essentially equally reactive”.
As for `O=C1NC(=O)C2(N1)c1cc(F)ccc1-c1ccc(F)cc12` [AL1576, reference compound], the “lens changes by slit lamp” value in data set [3] (0.0125% in chow, 47 days) is “No lens changes were observed”. For the same molecule, the lens sorbitol levels result in data set [3] (end of study (47 days)) is recorded as “No sorbitol was present”.
For the molecule `CN(C)S(=O)(=O)N1CCN(c2ncccn2)CC1` [JHX-1, 1-N,N′-dimethylsulfamoyl-4-(2-pyrimidyl)piperazine], the “% Parent Peak Remaining at 10:1 Solution of Metal:Compound” value (from here on “% Parent Peak Remaining at 10:1 Solution”) in data set [4], in data set [5], in [6], in data set [7], in data set [8] and in data set [9] was 100.0% throughout. For the same molecule, in data set [10], the “% Parent Peak Remaining at 10:1 Solution” value worked out at 100.0%.
Take `CN(C)S(=O)(=O)N1CCN(c2ncc(O)cn2)CC1` [JHX-2, 1-N,N′-dimethylsulfamoyl-4-(5-hydroxy-2-pyrimidyl)piperazine]: the “% Parent Peak Remaining at 10:1 Solution” value in data set [4], in [5], in [6], in [7], in [8] and in [9] was 100.0% each time. In addition, in [10], the “% Parent Peak Remaining at 10:1 Solution” value stood at 100.0%. Moreover, the “ROS staining, ROS initiated by homocysteine” value in data set [11] is recorded as “reduced ROS staining similar to that with Trolox”. The “protection against H2O2 induced loss of cell viability” value in data set [12] was “protecting against H2O2 induced loss of cell viability”.
With `CN(C)S(=O)(=O)N1C(=O)CN(c2ncccn2)CC1=O` [JHX-3, 1-N,N′-dimethylsulfamoyl-4-(2-pyrimidyl)piperazine-2,6-dione], the ion binding result in [13] is “bind ions”. The “% Parent Peak Remaining at 10:1 Solution” value in [4] came to 15.3%; in data set [5], 100.0%; in [6] it was 100.0%; in data set [7] it was 3.6%; in [8] it was 4.4%; in data set [9], 8.1%. The “% Parent Peak Remaining at 10:1 Solution” value in [10] worked out at 10.0%. Also, the “ROS staining, ROS generated by Fenton reaction” value in data set [11] is listed as “decreased staining; also recorded: protected against ROS”.
As for `COc1cc(OC)nc(N2CCN(S(=O)(=O)N(C)C)CC2)n1` [JHX-5, 1-N,N′-dimethylsulfamoyl-4-(4,6-dimethoxy-2-pyrimidyl)piperazine], the “% Parent Peak Remaining at 10:1 Solution” value in data set [4], in data set [5], in [6], in data set [7], in data set [8] and in [9] was 100.0% in each case. Besides, the “% Parent Peak Remaining at 10:1 Solution” value in data set [10] came out at 100.0%.
On to `COc1nc(N2CCN(S(=O)(=O)N(C)C)CC2)nc(OC)c1O` [JHX-6, 1-N,N′-dimethylsulfamoyl-4-(4,6-dimethoxy-5-hydroxy-2-pyrimidyl)piperazine], for which the “% Parent Peak Remaining at 10:1 Solution” value in data set [4], in data set [5], in [6], in [7], in data set [8] and in data set [9] was 100.0% each time. Moreover, the “% Parent Peak Remaining at 10:1 Solution” value in data set [10] is given as 100.0%. Moreover, in data set [11], the “ROS staining, ROS initiated by homocysteine” value is on record as “reduced ROS staining similar to that with Trolox”. Further, the “protection against H2O2 induced loss of cell viability” value in data set [12] is reported as “protecting against H2O2 induced loss of cell viability”.
For `COc1cc(OC)nc(N2CC(=O)N(S(=O)(=O)N(C)C)C(=O)C2)n1` [JHX-7, 1-N,N′-dimethylsulfamoyl-4-(4,6-dimethoxy-2-pyrimidyl)piperazine-2,6-dione], the ion binding result in data set [13] is “bind ions”. Besides, the “% Parent Peak Remaining at 10:1 Solution” value in data set [4] amounted to 13.8%; in [5] it was 100.0%; in [6] it was 100.0%; in [7], 4.1%; in [8] it was 3.4%; in data set [9], 7.3%. In data set [10], the “% Parent Peak Remaining at 10:1 Solution” value is reported as 7.6%. The “ROS staining, ROS generated by Fenton reaction” value in data set [11] was “decreased staining; also recorded: protected against ROS”.
For the molecule `Cc1c(C)c2c(c(C)c1O)CCC(C)(C(=O)O)O2` (stereo not shown) [Trolox, reference compound], in data set [12] (Fenton reagents (1.0 mM H2O2 and 1.0 mM Fe^2+), 2 hours), the “increase of HLEC viability compared to controls” value is reported as 15%.
